Experimental data as given in patent US20040014721A1, “Method for using tethered bis(polyhydroxyphenyls) and O-alkyl derivatives thereof in treating inflammatory conditions of the central nervous system” (Oklahoma Medical Research Foundation, priority 2002, published 2004).
Read-outs that look alike come from different tables or passages of the source. Marks after values point to notes of the source that are not given here. One block for each compound: values may come before it.

How the values were obtained:
C57/B6 mice = test: 3-nitropropionic acid (3NP) striatal damage model, rotarod and balance beam; format: in vivo; conditions: 2500 ppm in diet for one month, then 3NP 50 mg/kg i.p. every 12 h for 5 days
Method: Mice were then injected with 50 mg/kg 3NP intraperitoneally, every 12 h for 5 days. Motor performance was assessed daily by a rotarod task and balance was assessed by a balance wire task. In the rotarod task (Hensley et al. 2002), animals were placed on a bar rotating at 1 rpm and accelerating 10 rpm/minute until the animal fell from the bar. In the balance beam test, mice were placed on a 2-cm balance beam by suspending them by the tail, orienting them perpendicular to the beam, and placing the forepaws followed by hindpaws on the balance beam. Mice were left on the beam until they fell onto a soft cushion 75 cm below or until 5 min elapsed. The longest time of each pair of trials was used for statistical analysis.

[1] = system: C6 astrocyte culture exposed to lipopolysaccharide plus interferon gamma; conditions: LPS-stimulated C6 astrocyte model, Soliman et al., 1998; cited from earlier work
[2] = system: TNFα-Stimulated NO2^− Production in EOC-20 Cells; test: TNFα-stimulated nitrite (NO2−) production in EOC-20 microglial cells, Griess assay; format: cell-based, mouse
Method: Cells were cultured in 24 well plates until confluent then treated with test agent, which was dissolved at 100× final concentration in dimethylsulfoxide (DMSO), or with vehicle only. Thirty minutes after treatment with test agent, cells were treated with 10 ng/mL recombinant mouse TNFα (Pharmingen, San Diego, Calif. USA). […] Each compound was tested at 100 μM, 20 μM, 4 μM, 0.8 μM and 0 μM in the presence of TNFα. Four wells of cells were used for each concentration of test agent.
(§1) Lower IC50 values indicate improved efficacy. FIG. 2 illustrates the principle of the measurement using NDGA as an example test agent. In order to determine viability, cell culture medium was replaced with phenol-free DMEM (Gibco) containing 20 μL/mL of MTT viability reagent (Promega). […] Control cells were taken to indicate 100% viability and intermediate values of MTT reduction were scaled to percentage of control. For each compound, an LD50 value was determined by extrapolation through sublethal concentrations. This value represents the concentration that reduced the MTT viability parameter by 50%.

EOC-20 cells = system: EOC-20 cells
Method: as §1

LnCAP Production of PSA = test: LnCAP production of PSA (ELISA); format: cell-based; conditions: 24 h
Method: LnCAP prostate cancer cells were be cultured according to established methods (Horoszewicz et al., 1983). These cells product prostate-specific antigen (PSA), a serine protease that predicts metastatic potential ([…] et al., 2000). […] Each drug was tested in triplicate at each concentration. Medium was removed and tested for PSA concentration using a commercially available enzyme-linked immunosorbent assay (ELISA). Viability was determined in the adherent cells using the MTT assay.

[3] = system: TNFα-Mediated Nitrite Production in EOC-20 Cells; test: Leukotrienes added to EOC-20 cells with or without low-dose TNFα, nitrite at 24 h; format: cell-based, mouse; conditions: for autonomous stimulation of NO2− production: without TNFα
Method: Because 5LOX inhibitors tended to antagonize TNFα, the converse experiment was performed of directly adding 5LOX metabolites to EOC-20 cells in the presence or absence of TNFα. LTB4 was added to microglia at 10 μM and TNFα was added at a low dose (4 ng/mL) 10 min later. Nitrite was assayed at 24 h. […] Similar examples exist in the literature of LTB4 synergizing with IFNγ to activate macrophages (Talvani et al., 2002).

[4] = system: pro-inflammatory cytokines in EOC-20 microglial cells; test: Multiprobe ribonuclease protection assay of cytokine transcription in TNFα-stimulated EOC-20 cells; format: cell-based, mouse
Excerpt: It was noted that IL1β, IL1RA, IFNγ and MIF were affected by the treatments, while IL18 was not.

G93A-SOD1 mice = conditions: administered chronically; Gurney et al., 1996; cited from earlier work
lipoxygenase = conditions: cited from earlier work
[5] = Table III, 10 ng/mL TNFα, 24 hr, by interpolation, read-out: IC50
[6] = Table III, MTT viability, by extrapolation through sublethal concentrations
[7] = Mus musculus, 24 h, Table III, 10 ng/mL TNFα, 24 hr, by interpolation, read-out: IC50
[8] = Homo sapiens, LNCaP, extrapolated
[9] = Mus musculus, Table V, * obtained by linear extrapolation from points ≦100 μM, read-out: IC50
[10] = Table III, 10 ng/mL TNFα, 24 hr, by interpolation
[11] = Mus musculus, Table V, read-out: IC50

Compound: 7-Bis (4-hydroxy-3-methoxyphenyl)-1,6-heptadiene-3,5-dione [Curcumin]
balance test (C57/B6 mice): no effect
rotarod test (C57/B6 mice): possibly a detrimental effect
IC50 [1]: 72 µM
IC50 [2, 5]: 7 µM
IC50 ([2]; Table V, read-out: IC50): 14 µM

Compound: O=c1cc(-c2ccccc2)oc2cccc(O)c12 [5-OH-flavone]
LD50 (EOC-20 cells): 310 μm
IC50 (LnCAP Production of PSA; extrapolated): 227 µM
IC50 [2, 5]: 34 µM

Compound: O=c1cc(-c2ccccc2)oc2cc(O)cc(O)c12 [Chrysin, 5,7-dihydroxy-flavone]
LD50 (EOC-20 cells; [6]): 85 μm
IC50 (LnCAP Production of PSA; Homo sapiens, LNCaP): 91 µM
IC50 [2, 7]: 63 µM

IC50 (LnCAP Production of PSA; [8]): 130 µM
IC50 [2, 7]: 114 µM
Compound: O=c1c(-c2ccc(O)cc2)coc2cc(O)ccc12 [Daidzein, 4,7-dihydroxyisoflavone]

IC50 Values (ELISA), PSA production (LnCAP Production of PSA): Inactive
Compound: Oc1cc(O)c2c(c1)O[C@H](c1ccc(O)c(O)c1)[C@H](O)C2 [Epicatechin]

IC50 (LnCAP Production of PSA; Homo sapiens, LNCaP): 68 µM
IC50 [2, 7]: 47 µM
Compound: O=c1c(O)c(-c2ccc(O)cc2)oc2cc(O)cc(O)c12 [Kaempherol, 3,4′,5,7-tetrahydroxy-flavone]
LD50 (EOC-20 cells; mouse): 70 μm

Compound: CCCCC/C=C\C\C=C/C=C/C=C/[C@@H]1O[C@H]1CCCC(=O)O [LTA4]
autonomous stimulation of NO2− production [3]: Neither LTA4 nor LTB4 stimulated NO2^− production autonomously

Compound: CCCCC/C=C\C[C@@H](O)/C=C/C=C/C=C\[C@@H](O)CCCC(=O)O [LTB4, Leukotriene B4]
effect on nitrite yield with low-dose TNFα ([3]; 10 μM, TNFα 4 ng/mL, 24 h): synergized with low-dose TNFα to produce a significantly greater nitrite yield
autonomous stimulation of NO2− production [3]: Neither LTA4 nor LTB4 stimulated NO2^− production autonomously

Compound: CC(=O)Oc1ccc(CC(C)C(C)Cc2ccc(OC(C)=O)c(OC(C)=O)c2)cc1OC(C)=O (centres unmarked) [NDGA tetraacetyl ester]
LD50 (EOC-20 cells; Table V): Nontoxic
IC50 ([2]; Table V, read-out: IC50): 5 µM

Compound: CS(=O)(=O)Nc1ccc([N+](=O)[O-])cc1OC1CCCCC1 [NS-398]
LD50 (EOC-20 cells; Table V, * obtained by linear extrapolation from points ≦100 μM): 129* μM
activity against TNFα-stimulated nitrite production [2]: essentially inactive
IC50 [2, 9]: 108 µM

Compound: Oc1cc(O)cc(/C=C/c2ccc(O)c(O)c2)c1 [Piceatannol, 3,3′,4′,5 -tetrahydroxy stilbene]
transcription of pro-inflammatory cytokines [4]: differentially inhibited transcription of the pro-inflammatory cytokines
LD50 (EOC-20 cells; [6]): nontoxic
IC50 (LnCAP Production of PSA; Homo sapiens, LNCaP): 42 µM
IC50 [2, 7]: 15 µM

Compound: O=c1c(O)c(-c2ccc(O)c(O)c2)oc2cc(O)cc(O)c12 [Quercetin]
LD50 (EOC-20 cells): nontoxic
IC50 (LnCAP Production of PSA; [8]): 131 µM
IC50 [1]: 0.062 µM
IC50 [2, 7]: 44 µM

IC50 (LnCAP Production of PSA; Homo sapiens, LNCaP): 43 µM
IC50 [2, 7]: 80 µM
Compound: Oc1ccc(/C=C/c2cc(O)cc(O)c2)cc1 [Resveratrol, 3,4′,5-trihydroxy stilbene]
LD50 (EOC-20 cells): nontoxic

IC50 [2, 10]: Inactive
Compound: COc1ccc(/C=C/c2cc(O)cc(O[C@@H]3O[C@H](CO)[C@@H](O)[C@H](O)[C@H]3O)c2)cc1O [Rhapontin (natural, rhubarb), Rhapontin]
LD50 (EOC-20 cells): nontoxic

Compound: Nc1nc2ccc(OC(F)(F)F)cc2s1 [Riluzole]
extension in lifespan (G93A-SOD1 mice): 10 days

Compound: O=C(/C=C/c1ccc(O)c(O)c1)O[C@H](Cc1ccc(O)c(O)c1)C(=O)O [Rosemarinic acid]
LD50 (EOC-20 cells): nontoxic
IC50 [2, 7]: 139 µM

Compound: c1cc2c(cc1[C@H]1OC[C@H]3[C@@H]1CO[C@@H]3c1ccc3c(c1)OCO3)OCO2 [Sesamin, sesamin]
LD50 (EOC-20 cells; Table V): Nontoxic
IC50 [2, 11]: 42 µM

Compound: CN(C)[C@@H]1C(O)=C(C(N)=O)C(=O)[C@@]2(O)C(O)=C3C(=O)c4c(O)cccc4[C@@](C)(O)[C@H]3C[C@@H]12 [Tetracycline]
LD50 (EOC-20 cells): nontoxic
IC50 ([2]; Mus musculus, Table III, 10 ng/mL TNFα, 24 hr, by interpolation, read-out: IC50): 85 µM

IC50 [2, 10]: Inactive
Compound: C(=C\c1ccccc1)/c1ccccc1 [Trans-stilbene, Trans- stilbene]
LD50 (EOC-20 cells): nontoxic

Compound: N#CC(C#N)=C(N)/C(C#N)=C/c1cc(O)c(O)c(O)c1 [Tyrphostin 51]
LD50 (EOC-20 cells; [6]): nontoxic
IC50 [2, 10]: Inactive

Compound: N#CC(C#N)=Cc1ccc([N+](=O)[O-])c(O)c1 [Tyrphostin AG126]
LD50 (EOC-20 cells; [6]): 150 μm
IC50 [2, 5]: 18 µM

IC50 [2, 9]: 105 µM
Compound: CC(c1cc2ccccc2s1)N(O)C(N)=O (centres unmarked) [Zileuton]
LD50 (EOC-20 cells): Nontoxic
activity against TNFα-stimulated nitrite production [2]: approximately as effective as minocycline

Compound: Cc1c(C)c2c(c(C)c1O)CC[C@@](C)(CCC[C@H](C)CCC[C@H](C)CCCC(C)C)O2 [alpha tocopherol]
LD50 (EOC-20 cells): nontoxic
IC50 [2, 10]: Inactive

IC50 [2, 7]: 5.1 µM
Compound: O=C(/C=C/c1ccc(O)c(O)c1)c1ccc(O)cc1O [butein (2′,4′,3,4-tetrahydroxychalcone), 2′,4′,3,4-tetrahydroxychalcone]
LD50 (EOC-20 cells; mouse): 77 μm

Compound: O=C(/C=C/c1ccc(O)c(O)c1)OCCc1ccccc1 [caffeic acid phenethyl ester (CAPE), caffeic acid phenethyl ester]
lipoxygenase inhibition relative to NDGA (lipoxygenase; times more effective than NDGA, Mirzoeva and Calder, 1996): ~10 times
activity against TNFα-stimulated nitrite production [2]: approximately as effective as curcumin
IC50 [2, 7]: 12 µM
IC50 [2, 11]: 12 µM
efficacy relative to NDGA as inhibitor of TNFα-stimulated microglial activation ([2]; fold less effective than NDGA): 4 fold

Compound: COC1=C(OC)C(=O)C(C/C=C(\C)CC/C=C(\C)CC/C=C(\C)CC/C=C(\C)CC/C=C(\C)CC/C=C(\C)CC/C=C(\C)CC/C=C(\C)CC/C=C(\C)CCC=C(C)C)=C(C)C1=O [coenzyme O]
LD50 (EOC-20 cells): nontoxic
IC50 [2, 10]: Inactive

Compound: COc1cc(/C=C/C(=O)CC(=O)/C=C/c2ccc(OC(C)=O)c(OC)c2)ccc1OC(C)=O [curcumin diacetyl ester]
LD50 (EOC-20 cells; Table V): Nontoxic
IC50 ([2]; Table V, read-out: IC50): 14 µM

Compound: O=C(O[C@@H]1Cc2c(O)cc(O)cc2O[C@@H]1c1ccc(O)c(O)c1)c1cc(O)c(O)c(O)c1 [epicatechin gallate]
IC50 [1]: 10 µM

Compound: C[C@@H]1C(=O)O[C@H]2C[C@@]34[C@H]5C[C@@H](C(C)(C)C)[C@]36[C@@H](OC(=O)[C@@H]6O)O[C@@]4(C(=O)O5)[C@]21O [gingkolide A]
LD50 (EOC-20 cells; [6]): nontoxic
IC50 [2, 10]: Inactive

Compound: C[C@@H]1C(=O)O[C@H]2[C@@H](O)[C@@]34[C@H]5C[C@@H](C(C)(C)C)[C@]36[C@@H](OC(=O)[C@@H]6O)O[C@@]4(C(=O)O5)[C@@]12O [gingkolide B]
LD50 (EOC-20 cells; [6]): nontoxic
IC50 [2, 10]: Inactive

Compound: O=c1c(O)c(-c2ccc(O)cc2O)oc2cc(O)cc(O)c12 [morin]
IC50 [1]: 56 µM

Compound: CC(C)(C)/[N+]([O-])=C/c1ccccc1 [phenyl N tert-butyl-nitrone (PBN), phenyl N tert-butyl-nitrone]
LD50 (EOC-20 cells; [6]): nontoxic
IC50 [2, 5]: 100 µM

Compound: S=C(S)N1CCCC1 [pyrollidine dithiocarbamate (PDTC), pyrollidine dithiocarbamate]
LD50 (EOC-20 cells; [6]): 90 μm
IC50 [2, 5]: 51 µM

Compound: Oc1ccc(C#CC/C=C/c2ccc(O)c(O)c2)cc1O [rooperol]
cytotoxicity (EOC-20 cells): nontoxic
IC50 ([2]; read-out: IC50): 25 µM

Compound: COc1ccc(C[C@@H](C)[C@@H](C)Cc2ccc(OC)c(OC)c2)cc1OC [tetra-o-methyl-NDGA]
LD50 (EOC-20 cells): 125* μM
lipoxygenase inhibition (lipoxygenase; literature): does not inhibit lipoxygenase
activity against TNFα-stimulated nitrite production [2]: modest bioactivity
IC50 ([2]; Table V, read-out: IC50): 20 µM
